The record followed here is publication PMC12029227, “In Vitro Evaluation of Novel Furo[3,2-c]coumarins as Cholinesterases and Monoamine Oxidases Inhibitors” (Molecules, 2025).

The inhibition is the change of the read-out against control, counted positive when it falls. The term IC50 denotes the midpoint of a concentration-inhibition curve. The term Ki denotes a measure of affinity in units of concentration, obtained from inhibition or displacement.

One data set concerns the target T1, hBChE (Homo sapiens, UniProt P06276).
T1 construct: purchased Sigma-Aldrich (Milan, Italy)
Put plainly: biochemical. Type of data set: biochemical. To be noted: for inhibition at 10 µM: human BChE, mean ± SEM; for inhibitory activity toward hBChE (in words): summary of Table 1.

In a further data set the target is T2, hMAO A (Homo sapiens, UniProt P21397).
T2 construct: purchased Sigma-Aldrich (Milan, Italy)
T2 sequence (P21397 1-527): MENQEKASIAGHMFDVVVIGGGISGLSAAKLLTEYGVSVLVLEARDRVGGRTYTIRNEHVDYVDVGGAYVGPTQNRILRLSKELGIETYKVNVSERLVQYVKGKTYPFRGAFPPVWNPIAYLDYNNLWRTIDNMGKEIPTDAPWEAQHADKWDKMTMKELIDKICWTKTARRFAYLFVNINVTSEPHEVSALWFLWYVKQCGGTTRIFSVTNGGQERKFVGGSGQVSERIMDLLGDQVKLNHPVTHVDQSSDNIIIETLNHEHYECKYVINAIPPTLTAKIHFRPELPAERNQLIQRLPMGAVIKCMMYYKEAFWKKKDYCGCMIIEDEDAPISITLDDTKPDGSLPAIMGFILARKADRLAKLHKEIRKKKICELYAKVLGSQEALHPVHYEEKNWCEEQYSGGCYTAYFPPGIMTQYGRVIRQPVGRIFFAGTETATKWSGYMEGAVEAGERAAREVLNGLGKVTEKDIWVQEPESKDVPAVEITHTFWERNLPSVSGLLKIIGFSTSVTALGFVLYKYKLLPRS
Put plainly: Inhibition of human recombinant MAO A, spectrofluorimetric kynuramine assay. The data set is classed as biochemical. To be noted: for inhibition at 10 µM: read-out: % Inhibition at 10 μM hMAO A; for inhibition of MAO A activity (in words): summary of Table 1.

Another data set has as its target T3, hMAO B (Homo sapiens, UniProt P27338).
T3 construct: purchased Sigma-Aldrich (Milan, Italy)
T3 sequence (P27338 1-520): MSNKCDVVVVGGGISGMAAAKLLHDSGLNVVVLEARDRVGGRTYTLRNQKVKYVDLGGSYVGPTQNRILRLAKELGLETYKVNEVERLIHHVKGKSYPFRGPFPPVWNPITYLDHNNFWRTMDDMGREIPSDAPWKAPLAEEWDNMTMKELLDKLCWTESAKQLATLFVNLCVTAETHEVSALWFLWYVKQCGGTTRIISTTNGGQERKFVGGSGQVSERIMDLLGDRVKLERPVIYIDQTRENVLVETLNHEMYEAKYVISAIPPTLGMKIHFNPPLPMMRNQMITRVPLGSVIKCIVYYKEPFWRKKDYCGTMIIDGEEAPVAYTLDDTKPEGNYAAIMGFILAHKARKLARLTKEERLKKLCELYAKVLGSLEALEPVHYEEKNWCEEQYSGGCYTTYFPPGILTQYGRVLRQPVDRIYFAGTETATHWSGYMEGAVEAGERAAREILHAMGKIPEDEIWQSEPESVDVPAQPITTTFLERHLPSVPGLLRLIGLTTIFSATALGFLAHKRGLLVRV
The experiment in a line: Inhibition of human recombinant MAO B, spectrofluorimetric kynuramine assay. To be noted: for inhibition at 10 µM: read-out: % Inhibition at 10 μM hMAO B. Type of data set: biochemical.

Another data set concerns the target T4, hAChE (Homo sapiens, UniProt P22303).
T4 construct: purchased Sigma-Aldrich (Milan, Italy)
The experiment in a line: biochemical. The conditions noted are these: for IC50: human AChE, mean of three independent experiments ± SEM.

Data set [1] is described as follows: Precipitation in the cell assay conditions. Type of data set: physicochemical. The conditions noted are these: 20 μM, SH-SY5Y cell assay conditions.
Protocol: The cell viability of human neuroblastoma SH-SY5Y cells was measured as previously reported in ref. [29]. […] Briefly, cells were plated at a concentration of 4.5 × 10^4 cells/well and cultured in Dulbecco’s modified Eagle’s medium (DMEM) high glucose supplemented with 10% (v/v) heat-inactivated fetal bovine serum (FBS), 2 mM L-glutamine, 100 U/mL penicillin, and 100 μg/mL streptomycin at 37 °C in an atmosphere of 5% CO2 in 96 wells/plate. […] Then, cells were incubated for 2 h at 37 °C and 5% CO2 with 0.5 mg/mL of MTT, and the formazan crystals in the cells were solubilized with absolute ethanol. […] Cell viability was expressed as a percentage of the negative control (CTRL), represented by untreated cells, which was set at 100%. Data are the mean ± SD from three independent experiments, each performed in triplicate and analyzed using GraphPad Prism 5.0 (GraphPad Software Inc., San Diego, CA, USA). Statistical significance was calculated using a one-way analysis of variance (ANOVA) followed by Dunnett’s multiple comparison test. Levels of significance refer to untreated cells: * p < 0.05.
[2] abbreviates: human recombinant MAO A on Supersomes, 10 μM, mean ± SEM.
[3] abbreviates: human recombinant MAO B on Supersomes, 10 μM, mean ± SEM.

“Also recorded” adds a separate entry of the source. Like-named read-outs stand apart in the source and are kept apart here. Where only a bound is given, the exact number is not on record here.

T1 sequence (P06276 29-602): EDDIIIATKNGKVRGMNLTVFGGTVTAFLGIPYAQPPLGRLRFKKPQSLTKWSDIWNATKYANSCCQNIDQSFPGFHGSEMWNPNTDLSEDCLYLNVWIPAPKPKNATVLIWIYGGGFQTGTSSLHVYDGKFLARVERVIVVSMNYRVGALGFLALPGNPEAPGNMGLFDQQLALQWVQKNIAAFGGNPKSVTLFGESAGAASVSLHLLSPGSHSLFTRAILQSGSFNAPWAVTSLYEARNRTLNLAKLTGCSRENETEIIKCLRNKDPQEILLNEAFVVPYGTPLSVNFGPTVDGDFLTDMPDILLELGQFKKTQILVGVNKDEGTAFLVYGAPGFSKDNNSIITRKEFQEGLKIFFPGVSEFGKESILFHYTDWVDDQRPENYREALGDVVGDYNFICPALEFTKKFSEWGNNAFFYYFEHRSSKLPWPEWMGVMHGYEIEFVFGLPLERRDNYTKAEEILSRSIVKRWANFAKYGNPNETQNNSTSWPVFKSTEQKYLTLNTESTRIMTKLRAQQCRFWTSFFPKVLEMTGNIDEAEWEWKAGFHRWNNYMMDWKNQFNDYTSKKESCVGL
T4 sequence (P22303 32-614): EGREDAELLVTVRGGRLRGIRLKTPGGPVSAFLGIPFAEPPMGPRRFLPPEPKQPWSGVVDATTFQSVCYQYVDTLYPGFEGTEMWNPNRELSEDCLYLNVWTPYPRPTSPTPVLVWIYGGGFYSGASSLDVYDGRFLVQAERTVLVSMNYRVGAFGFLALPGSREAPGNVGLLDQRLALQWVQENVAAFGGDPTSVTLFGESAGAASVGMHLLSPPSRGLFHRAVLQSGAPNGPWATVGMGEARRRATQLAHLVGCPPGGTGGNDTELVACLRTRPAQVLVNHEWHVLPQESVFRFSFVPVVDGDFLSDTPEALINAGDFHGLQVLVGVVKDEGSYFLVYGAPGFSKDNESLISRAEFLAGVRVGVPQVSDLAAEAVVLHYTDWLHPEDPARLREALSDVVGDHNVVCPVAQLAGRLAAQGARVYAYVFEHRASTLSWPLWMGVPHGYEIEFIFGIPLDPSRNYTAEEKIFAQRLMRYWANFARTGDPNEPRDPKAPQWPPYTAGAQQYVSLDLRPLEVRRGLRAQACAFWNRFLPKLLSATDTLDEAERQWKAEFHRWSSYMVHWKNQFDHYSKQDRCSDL
Protocol for hAChE: All human enzymes, substrates and reagents were from Sigma-Aldrich (Milan, Italy). Experiments were run in 96-well plates from Greiner Bio-One (Kremsmenster, Austria) with an Infinite M1000 Pro multiplate reader (Tecan, Cernusco sul Naviglio, Italy). The inhibition of ChEs was determined by following Ellman’s spectrophotometric assay in transparent, flat-bottom plates [18]. […] Incubations were performed in triplicate and results were expressed as the mean ± SEM from 3 independent experiments. The values of IC50 were calculated by nonlinear regressions using GraphPad Prism 5.00 (GraphPad Software, San Diego, CA, USA). […] Apparent inhibition constants and kinetic parameters were calculated within the “Enzyme kinetics” module of Prism.
Protocol for hBChE: All human enzymes, substrates and reagents were from Sigma-Aldrich (Milan, Italy). Experiments were run in 96-well plates from Greiner Bio-One (Kremsmenster, Austria) with an Infinite M1000 Pro multiplate reader (Tecan, Cernusco sul Naviglio, Italy). The inhibition of ChEs was determined by following Ellman’s spectrophotometric assay in transparent, flat-bottom plates [18]. […] Incubations were performed in triplicate and results were expressed as the mean ± SEM from 3 independent experiments. The values of IC50 were calculated by nonlinear regressions using GraphPad Prism 5.00 (GraphPad Software, San Diego, CA, USA).
Protocol for hMAO A: (§1) All human enzymes, substrates and reagents were from Sigma-Aldrich (Milan, Italy). Experiments were run in 96-well plates from Greiner Bio-One (Kremsmenster, Austria) with an Infinite M1000 Pro multiplate reader (Tecan, Cernusco sul Naviglio, Italy). […] For studies addressing MAOs inhibition the spectrofluorimetric protocol was based on the oxidative deamination of kynuramine to 4-hydroxyquinoline measured in black, flat-bottom polystyrene plates [29]. Incubations were performed in triplicate and results were expressed as the mean ± SEM from 3 independent experiments. The values of IC50 were calculated by nonlinear regressions using GraphPad Prism 5.00 (GraphPad Software, San Diego, CA, USA).
Protocol for hMAO B: as §1

In the case of `CS(=O)(=O)c1ccccc1[C@@H]1Oc2c(c(=O)oc3ccccc23)[C@H]1c1ccc(Cl)cc1` [Compound 2c], the inhibition at 10 µM against hBChE was below 5%; at hMAO A, 16 ± 14%; at hMAO B it was 11 ± 6%. On hBChE, the “inhibitory activity toward hBChE (in words)” value was “absence of inhibitory activities”. At hAChE, this compound returned an IC50 of 4 ± 0.7 µM.
On to `CS(=O)(=O)c1ccccc1[C@@H]1Oc2c(c(=O)oc3ccccc23)[C@H]1c1cccs1` [Compound 2d], for which the inhibition at 10 µM on hBChE was below 5%; on hMAO A, 42 ± 4%; on hMAO B it was 17 ± 10%. The “inhibitory activity toward hBChE (in words)” value at hBChE is listed as “absence of inhibitory activities”. Besides, the “precipitation in the assay conditions at higher concentrations” value (“precipitation in the assay conditions” for short) in data set [1] is given as “precipitation”. For the same compound, the concentration for half-maximal inhibition (IC50) on hAChE was 4 ± 0.5 µM.
Consider `Cc1ccc([C@@H]2c3c(c4ccccc4oc3=O)O[C@H]2c2ccccc2S(C)(=O)=O)cc1` [Compound 2a], for which the inhibition at 10 µM against hBChE was determined as 27 ± 12%; on hMAO A it was 47 ± 3%; at hMAO B, 40 ± 8%. Moreover, the “inhibitory activity toward hBChE (in words)” value on hBChE is given as “very low percentage of inhibition”. For the same compound, the “precipitation in the assay conditions” value in data set [1] is given as “precipitation”. Also, the IC50 against hAChE amounted to 5.5 ± 0.7 µM.
For the compound `Cc1ccc(-c2c(-c3ccccc3S(C)(=O)=O)oc3c2c(=O)oc2ccccc23)cc1` [Compound 3a], the values for the inhibition at 10 µM on hBChE, on hMAO A (setting [2]) and on hMAO B (setting [3]) were below 5%, below 5% and 32%, respectively. Also, at hBChE, the “inhibitory activity toward hBChE (in words)” value is recorded as “absence of inhibitory activities”. For the same compound, the “inhibition of MAO A activity (in words)” value on hMAO A (10 μM) was “inactive”. Moreover, it took 4.4 ± 0.5 µM to reach half-maximal inhibition on hAChE (IC50).
For the compound `COc1ccc(-c2c(-c3ccccc3S(C)(=O)=O)oc3c2c(=O)oc2ccccc23)cc1` [Compound 3b], the inhibition at 10 µM was 19 ± 9% against hBChE, below 5% at hMAO A (setting [2]) and 43 ± 1% at hMAO B (setting [3]). Further, the “inhibitory activity toward hBChE (in words)” value against hBChE was “very low percentage of inhibition”. For the same compound, the “inhibition of MAO A activity (in words)” value on hMAO A (10 μM) is “inactive”. The compound also showed an IC50 against hAChE of 5.7 ± 1 µM.
Regarding `COc1ccc([C@@H]2c3c(c4ccccc4oc3=O)O[C@H]2c2ccccc2S(C)(=O)=O)cc1` [Compound 2b], the inhibition at 10 µM at hBChE worked out at 29 ± 11%; on hMAO A, 45 ± 1%; at hMAO B, 39 ± 6%. Moreover, the “inhibitory activity toward hBChE (in words)” value at hBChE was “very low percentage of inhibition”. Moreover, the “precipitation in the assay conditions” value in data set [1] was “precipitation”. The IC50 against hAChE was 6.1 ± 0.3 µM.
Consider `CS(=O)(=O)c1ccccc1-c1oc2c(c1-c1cccs1)c(=O)oc1ccccc12` [Compound 3d], for which the inhibition at 10 µM at hBChE is 21 ± 3%; at hMAO A (setting [2]), below 5%. The “inhibitory activity toward hBChE (in words)” value at hBChE is “very low percentage of inhibition”. The “inhibition of MAO A activity (in words)” value on hMAO A (10 μM) is on record as “no inhibition”. Also, the IC50 stood at 0.561 ± 0.085 µM on hMAO B and 4.1 ± 0.7 µM against hAChE. Besides, at hAChE (Lineweaver-Burk plots, inhibitor 0–15 μM), the “inhibition mechanism for AChE” value is given as “mixed-type or a non-competitive inhibition mechanism; also recorded: mixed-type kinetics; also recorded: mixed-type or non-competitive binding mode”. In addition, the Ki on hAChE (Lineweaver-Burk plots, inhibitor 0–15 μM, substrate S-acetylthiocholine 0.033 to 0.2 mM, read-out: Ki AChE) was 9.7 ± 0.6 µM.
